From US11965039B2, “Compstatin analogues and their medical uses” (priority 2018, dated 2024) come the findings set out here.

Where two headings read alike, the source gives them in different places. Starred links: 1 amine or outer side, 2 acyl side, 3 side chain; linkers in the order of their positions; H or OH if unused. Positions of bridges follow the written chain, without caps; N, C: chain ends. Non-standard residues stand in square brackets, D forms with d. Residues, ends and D or L forms follow the SMILES beside them. Groups on a side chain read outwards from the residue. *: point of attachment. Trp(1-Me) = Cn1cc(C[C@H](N)C(=O)O)c2ccccc21; C18 diacid = O=C(O)CCCCCCCCCCCCCCCCC(=O)*; C16 diacid = O=C(O)CCCCCCCCCCCCCCC(=O)*; γGlu = O=C(O)[C@H](CCC(=O)[*:2])N[*:1]; AEEA = NCCOCCOCC(=O)O; Sar = CNCC(=O)O

A short description of data set [1]: Pharmacokinetic half-life in non-human primates (serum, LC-MS/MS). The note with it: male, cynomolgus monkey, sc, NHP, single subcutaneous dose 1840 nmol/kg, * = approximate determination. It is filed as in vivo, Cynomolgus monkeys (Macaca fascicularis). As to the method:
Healthy male Cynomolgus monkeys (Macaca fascicularis) received single subcutaneous administrations of each test substance. Compounds were formulated in 20 mM phosphate adjusted with NaOH to pH 7.5 and mannitol for isotonicity and dosed at 1840 nmol/kg. Blood was collected from a femoral vein from each animal at the following times: Pre-dose, 1, 2, 4, 8, 24, 48, 72, 96 and 120 h (10 sampling times). Blood was collected into serum separation tubes and allowed to clot at room temperature. The tubes were centrifuged and resulting serum was aliquoted and snap-frozen over dry-ice and stored at nominally −80° C. until analysis. All NHP studies were performed in accordance with animal welfare laws and regulations, including approval of the study by a local ethical review process.
In order to assess pharmacokinetic half-life (t ½), serum samples isolated from non-human primates at specific time points after dosing were analysed for total drug compound after sample preparation by solid phase extraction (SPE) and liquid chromatography mass spectrometry (LC-MS/MS) using analogue internal standard. Single measurement of serum concentrations were used for calculation of the pharmacokinetic parameters using the non-compartmental approach in Phoenix WinNonlin 6.3. Plasma terminal elimination half-life (t½) was determined as In(2)/λz where λz is the magnitude of the slope of the log linear regression of the log concentration versus time profile during the terminal phase.

Data set [2] is described as follows: Solubility test at 10 mg/mL (visual inspection and light scattering). It is filed as physicochemical.
Data set [3] has as its system classical complement pathway. Briefly: In vitro haemolysis assay (inhibition of classical complement pathway). It is filed as cell-based, human. To be noted: human serum, sensitized sheep red blood cells; Table 3, given as upper bounds; read-out: IC50, inhibition of hemolysis. The essentials: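 Compound dilutions preincubated 15 min at room temperature with diluted human serum (titrated per batch for 70-90% maximal haemolysis), then antibody-sensitized sheep RBC (10^7/well) added for 30 min at 37 °C in Tris/casein buffer, pH 7.4. Stopped with EDTA; haemolysis read at 405 nm; IC50 by 4PL fit.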

Data set [4] deals with T1, Human C3 (Complement tech cat #A113c) (human, UniProt P01024 23-1663). Briefly: cell-based or functional assay.
T1 sequence (P01024 23-1663 limits assumed): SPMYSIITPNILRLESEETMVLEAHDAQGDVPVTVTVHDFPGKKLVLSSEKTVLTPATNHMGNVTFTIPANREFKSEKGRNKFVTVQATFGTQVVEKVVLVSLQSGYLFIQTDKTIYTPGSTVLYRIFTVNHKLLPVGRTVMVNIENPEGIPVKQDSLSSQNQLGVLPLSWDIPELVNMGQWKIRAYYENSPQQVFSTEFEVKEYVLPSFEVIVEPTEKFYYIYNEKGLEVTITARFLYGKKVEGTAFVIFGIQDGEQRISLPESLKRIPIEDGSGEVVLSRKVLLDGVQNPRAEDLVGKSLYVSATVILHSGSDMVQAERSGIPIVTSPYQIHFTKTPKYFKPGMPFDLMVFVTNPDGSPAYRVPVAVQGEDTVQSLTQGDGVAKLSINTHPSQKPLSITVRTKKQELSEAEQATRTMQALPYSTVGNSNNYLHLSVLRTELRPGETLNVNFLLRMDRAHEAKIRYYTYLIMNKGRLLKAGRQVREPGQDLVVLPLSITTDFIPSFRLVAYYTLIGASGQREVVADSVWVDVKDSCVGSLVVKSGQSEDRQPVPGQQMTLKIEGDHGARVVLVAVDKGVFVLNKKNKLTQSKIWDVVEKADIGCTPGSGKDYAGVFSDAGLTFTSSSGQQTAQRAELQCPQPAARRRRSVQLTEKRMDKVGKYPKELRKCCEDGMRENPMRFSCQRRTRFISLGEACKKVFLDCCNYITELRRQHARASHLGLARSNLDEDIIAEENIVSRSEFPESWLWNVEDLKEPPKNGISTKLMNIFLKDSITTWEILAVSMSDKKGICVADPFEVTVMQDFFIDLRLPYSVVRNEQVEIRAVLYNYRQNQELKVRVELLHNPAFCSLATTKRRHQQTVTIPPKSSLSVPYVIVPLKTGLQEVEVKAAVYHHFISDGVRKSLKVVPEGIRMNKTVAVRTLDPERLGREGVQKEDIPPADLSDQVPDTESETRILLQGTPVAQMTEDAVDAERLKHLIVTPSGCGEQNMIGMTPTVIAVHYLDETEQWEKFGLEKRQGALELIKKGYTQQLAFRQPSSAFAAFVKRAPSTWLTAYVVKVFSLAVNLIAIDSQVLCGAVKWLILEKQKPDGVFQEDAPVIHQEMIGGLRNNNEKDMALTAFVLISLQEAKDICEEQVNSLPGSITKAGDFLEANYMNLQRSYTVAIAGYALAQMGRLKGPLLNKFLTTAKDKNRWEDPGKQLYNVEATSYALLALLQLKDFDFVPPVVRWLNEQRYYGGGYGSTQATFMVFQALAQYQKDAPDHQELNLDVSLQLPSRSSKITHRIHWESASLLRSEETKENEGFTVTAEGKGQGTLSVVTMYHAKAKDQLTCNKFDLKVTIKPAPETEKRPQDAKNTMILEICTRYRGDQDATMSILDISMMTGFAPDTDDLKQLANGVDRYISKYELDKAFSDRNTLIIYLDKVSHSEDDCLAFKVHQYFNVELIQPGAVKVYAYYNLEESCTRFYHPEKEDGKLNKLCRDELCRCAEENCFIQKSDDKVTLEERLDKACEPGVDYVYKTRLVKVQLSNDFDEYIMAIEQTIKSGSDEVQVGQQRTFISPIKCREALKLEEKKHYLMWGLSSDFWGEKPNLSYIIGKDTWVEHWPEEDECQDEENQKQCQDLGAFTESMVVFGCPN
In data set [5] the target is T1, Human C3 (Complement tech cat #A113c). The experiment in a line: SPR (Biacore T200), human C3 immobilised, peptide injected, 1:1 fit. As for the experimental part: Surface plasmon resonance (SPR) was used to characterize peptides with respect to their binding affinity (Kd) for C3. Human C3 (Complement tech cat #A113c) was immobilised on individual flow cells of CM5 sensor chips (GE Healthcare) using standard amine coupling to a density of approximately 3000 resonance units (RU) in a buffer consisting of 10 mM phosphate pH 7.4, 150 mM NaCl, 0.05% Tween20.
For interaction experiments a multi-cycle experiment approach was used and performed using a BiacoreT200™ instrument (GE Healthcare) at 25° C. Peptides were injected in increasing concentration series (6-8 different concentrations) for 60-120 sat a flow rate of 30 µL/min in a buffer consisting of 10 mM Tris buffer at pH 7.4, with 150 mM NaCl and 0.05% Tween20. This was followed by a dissociation period for up to 10 min. The C3 surface was regenerated between runs by a 45 s injection of 3 M MgCl_2.

For data set [6] the target is unchanged. The description is as above. The gist of the method:
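Human C3 amine-coupled on CM5 chips to about 3000 RU. Multi-cycle runs on Biacore T200 at 25° C: peptides at 6-8 rising concentrations, 60-120 s at 30 µL/min in 10 mM Tris pH 7.4, 150 mM NaCl, 0.05% Tween20, dissociation up to 10 min; 3 M MgCl2 regeneration. Kd derived.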
This is another data set of the same source.

For data set [7] the target is unchanged. Briefly: cell-based or functional assay. This is another data set of the same source.
The target is the same in data set [8]. The experiment in a line: cell-based or functional assay. The source holds these as a separate data set.

As a reminder, the half-life is the time in which the quantity being followed falls by half. The low end stands for fast loss, the high end for slow loss. What is called IC50 is the concentration that gives 50% inhibition. `CC[C@H](C)[C@@H]1NC(=O)[C@@H](NC(=O)[C@H](Cc2ccc(O)cc2)NC(=O)[C@H](C)NC(=O)[C@H](CO)NC(=O)CNC(=O)[C@H](CCC(=O)O)NC(C)=O)CSSC[C@@H](C(=O)N(C)CC(=O)N[C@@H](CCC(=O)O)C(=O)NCC(=O)N[C@@H](CCCCNC(=O)COCCOCCNC(=O)COCCOCCNC(=O)CC[C@H](NC(=O)CCCCCCCCCCCCCCC(=O)O)C(=O)O)C(N)=O)NC(=O)[C@H](CCCNC(=N)N)NC(=O)[C@H](Cc2c[nH]cn2)NC(=O)[C@H](CCC(=O)O)NC(=O)CNC(=O)[C@H](Cc2c[nH]c3ccccc23)NC(=O)[C@H](CC(=O)O)NC(=O)[C@H](CCC(N)=O)NC(=O)[C@H](Cc2cn(C)c3ccccc23)NC1=O` [Compound 104] (Ac-EGSAYCI[Trp(1-Me)]QDWGEHRC[Sar]EGK([AEEA-AEEA-γGlu-C16 diacid])-NH2; disulfide 6-16) showed a half-life in data set [1] of around 96.3 h. Besides, the “Solubility, Condition 1” value in data set [2] (Acetate pH 4) was “− (“−” denotes lack of solubility at the given condition, as UV absorbance at 340 nm exceeds 0.1 AU and/or it is visibly turbid or contains particles)”. For the same molecule, the “Solubility, Condition 2” value in data set [2] (Acetate pH 5) was “+ (“+” denotes solubility at the given condition, as determined by UV absorbance being less than 0.1 AU at 340 nm and the sample being clear when manually inspected)”. In addition, the “Solubility, Condition 3” value in data set [2] (Phosphate pH 6) was “+ (“+” denotes solubility at the given condition, as determined by UV absorbance being less than 0.1 AU at 340 nm and the sample being clear when manually inspected)”. The “Solubility, Condition 4” value in data set [2] (Phosphate pH 7) was “+ (“+” denotes solubility at the given condition, as determined by UV absorbance being less than 0.1 AU at 340 nm and the sample being clear when manually inspected)”. Further, the “Solubility, Condition 5” value in data set [2] (Phosphate pH 7.5) was “+ (“+” denotes solubility at the given condition, as determined by UV absorbance being less than 0.1 AU at 340 nm and the sample being clear when manually inspected)”. Further, the IC50 in data set [3] was below 100 nM.
`CC[C@H](C)[C@@H]1NC(=O)[C@@H](NC(=O)[C@H](Cc2ccc(O)cc2)NC(=O)[C@H](C)NC(=O)[C@H](CO)NC(C)=O)CSSC[C@@H](C(=O)N(C)CC(=O)N[C@@H](CCC(=O)O)C(=O)N[C@@H](CCCCNC(=O)CC[C@H](NC(=O)CNC(=O)CC[C@H](NC(=O)CCCCCCCCCCCCCCCCC(=O)O)C(=O)O)C(=O)O)C(N)=O)NC(=O)[C@H](CCCNC(=N)N)NC(=O)[C@H](Cc2c[nH]cn2)NC(=O)[C@H](CCC(=O)O)NC(=O)CNC(=O)[C@H](Cc2c[nH]c3ccccc23)NC(=O)[C@H](CC(=O)O)NC(=O)[C@H](CCC(N)=O)NC(=O)[C@H](Cc2cn(C)c3ccccc23)NC1=O` [Compound 106] (Ac-SAYCI[Trp(1-Me)]QDWGEHRC[Sar]EK([γGlu-Gly-γGlu-C18 diacid])-NH2; disulfide 4-14) had a half-life in data set [1] of around 93.9 h. Further, the IC50 in data set [3] was below 250 nM.

B1: Compound 2 (peptide)
peptide: Ac-ICIWQDWGEHRCT-NH2
modifications: disulfide 2-12
SMILES: CC[C@H](C)[C@H](NC(C)=O)C(=O)N[C@H]1CSSC[C@@H](C(=O)N[C@H](C(N)=O)[C@@H](C)O)NC(=O)[C@H](CCCNC(=N)N)NC(=O)[C@H](Cc2c[nH]cn2)NC(=O)[C@H](CCC(=O)O)NC(=O)CNC(=O)[C@H](Cc2c[nH]c3ccccc23)NC(=O)[C@H](CC(=O)O)NC(=O)[C@H](CCC(N)=O)NC(=O)[C@H](Cc2c[nH]c3ccccc23)NC(=O)[C@H]([C@@H](C)CC)NC1=O
Broadly, the Kd is the equilibrium constant for the complex coming apart. The low end stands for higher affinity, the high end for lower affinity. For the molecule B1, the “CP hemolysis IC50” value in data set [4] was found to be 94 nM. Besides, the Kd in data set [5] and in data set [6] was 16 nM throughout. For the same molecule, the “IC50, CP hemolysis” value in data set [7] was below 100 nM. The “inhibition of hemolysis IC50” value in data set [8] was below 100 nM.
